What was measured:
[1] = system: antibodies in sera from SARS patients (sera 1a, 1b, 2, 6, 37, 62, London, SARS-yellow, SARS-green); type: binding, human; design: Binding of serum 6 to linear peptides of protein X1 of SARS-CoV Urbani / Binding of serum 37 to linear peptides of protein X1 of SARS-CoV Urbani / Binding of serum 6 to looped/cyclic peptide (PEPSCAN-ELISA) / Binding of serum 37 to looped/cyclic peptide (PEPSCAN-ELISA) / Binding of serum 37 to looped/cyclic peptides of protein X1 of SARS-CoV Urbani / Binding of serum 6 to linear peptides of protein X2 / Binding of serum 37 to linear peptides of protein X2 / Binding of serum 37 to looped/cyclic peptides of protein X2 of SARS-CoV Urbani / Binding of serum 6 to linear peptides of protein M of SARS-CoV Urbani / Binding of serum 37 to linear peptides of protein M of SARS-CoV Urbani / Binding of serum 6 to looped/cyclic peptides of protein M of SARS-CoV Urbani / Binding of serum 37 to looped/cyclic peptides of protein M of SARS-CoV Urbani / Binding of serum 6 to linear peptides of protein X3 of SARS-CoV Urbani / Binding of serum 37 to linear peptides of protein X3 of SARS-CoV Urbani / Binding of serum 37 to looped/cyclic peptides of protein X3 of SARS-CoV Urbani / Binding of serum 6 to linear peptides of protein X4 of SARS-CoV Urbani / Binding of serum 37 to linear peptides of protein X4 of SARS-CoV Urbani / Binding of serum 37 to looped/cyclic peptides of protein X4 of SARS-CoV Urbani / Binding of serum 6 to linear peptides of protein X5 of SARS-CoV Urbani / Binding of serum 37 to linear peptides of protein X5 of SARS-CoV Urbani / Binding of serum 37 to looped/cyclic peptides of protein X5 of SARS-CoV Urbani / Binding of serum 6 to linear peptides of protein N of SARS-CoV Urbani / Binding of serum 37 to linear peptides of protein N of SARS-CoV Urbani / Binding of serum 6 to linear peptide (PEPSCAN-ELISA) / Binding of serum 1a to looped/cyclic peptides of protein N of SARS-CoV Urbani / Binding of serum 1b to looped/cyclic peptides of protein N of SARS-CoV Urbani / Binding of serum 2 to looped/cyclic peptides of protein N of SARS-CoV Urbani / Binding of serum 6 to looped/cyclic peptides of protein N of SARS-CoV Urbani / Binding of serum 37 to looped/cyclic peptides of protein N of SARS-CoV Urbani / Binding of serum 62 to looped/cyclic peptides of protein N of SARS-CoV Urbani / Binding of serum London to looped/cyclic peptides of protein N of SARS-CoV Urbani / Binding of serum SARS-green to looped/cyclic peptides of protein N of SARS-CoV Urbani: unit not given here
[2] = system: rabbit serum obtained by immunizing a rabbit with the SARS-CoV strain Frankfurt 1; type: binding; design: Binding of a rabbit serum to linear peptides / Binding of a rabbit serum to looped peptides / Rabbit serum linear peptides / Rabbit serum looped peptides / Binding of a rabbit serum to linear peptides of protein N of SARS-CoV Urbani (Rabbit serum linear peptides) / Binding of a rabbit serum to looped/cyclic peptides of protein N of SARS-CoV Urbani (Rabbit serum looped peptides): unit not given here
[3] = system: control sera (pooled serum of ten healthy LUMC hospital workers; commercial negative donor pooled serum from the Dutch bloodbank); type: binding, human; design: Binding of Control serum LUMC to linear peptides / Binding of Control serum Blood-bank to linear peptides / Binding of Control serum LUMC to looped peptides / Binding of Control Serum Blood-Bank to Looped peptides / Binding of Control serum LUMC to linear peptides of the protein M of SARS-CoV Urbani / Binding of Control serum Blood-bank to linear peptides of the protein M of SARS-CoV Urbani / Binding of Control serum LUMC to looped peptides of the protein M of SARS-CoV Urbani / Binding of Control Serum Blood-Bank to Looped peptides of the protein M of SARS-CoV Urbani: unit not given here

For PYNSVTDTIVVTEGD, the “Binding of serum 1a to linear peptides of protein X1 of SARS-CoV Urbani” value [1] was 0.5, the “Binding of serum 1a to looped/cyclic peptides of protein X1 of SARS-CoV Urbani” value [1] was 0.4 and the “Binding of serum 1b to linear peptides of protein X1 of SARS-CoV Urbani” value [1] was 0.4. The “Binding of serum 1b to looped/cyclic peptides of protein X1 of SARS-CoV Urbani” value [1] was 0.3, the “Binding of serum 2 to linear peptides of protein X1 of SARS-CoV Urbani” value [1] was 0.4 and the “Binding of serum 2 to looped/cyclic peptides of protein X1 of SARS-CoV Urbani” value [1] was 0.3. For the same sequence, the “Binding of serum 6 to linear peptides of protein X1 of SARS-CoV Urbani” value [1] was 0.4, the “Binding of serum 6 to looped/cyclic peptides of protein X1 of SARS-CoV Urbani” value [1] was 0.1 and the “Binding of serum 37 to linear peptides of protein X1 of SARS-CoV Urbani” value [1] was 0.5. The “Binding of serum 37 to looped/cyclic peptides of protein X1 of SARS-CoV Urbani” value [1] was 0.3, the “Binding of serum 62 to linear peptides of protein X1 of SARS-CoV Urbani” value [1] was 0.4 and the “Binding of serum 62 to looped/cyclic peptides of protein X1 of SARS-CoV Urbani” value [1] was 0.3. The “Binding of serum London to linear peptides of protein X1 of SARS-CoV Urbani” value [1] was 0.2, the “Binding of serum London to looped/cyclic peptides of protein X1 of SARS-CoV Urbani” value [1] was 0.2 and the “Binding of serum SARS-green to linear peptides of protein X1 of SARS-CoV Urbani” value [1] was 0.2. The “Binding of serum SARS-green to looped/cyclic peptides of protein X1 of SARS-CoV Urbani” value [1] was 0.5, the “Binding of serum SARS-yellow to linear peptides of protein X1 of SARS-CoV Urbani” value [1] was 0.3 and the “Binding of serum SARS-yellow to looped/cyclic peptides of protein X1 of SARS-CoV Urbani” value [1] was 0.4. For the same sequence, the “Binding of a rabbit serum to linear peptides” value [2] was 0.1, the “Binding of a rabbit serum to looped peptides” value [2] was 0.3 and the “Binding of Control Serum Blood-Bank to Looped peptides” value [3] was 0.4. The “Binding of Control serum Blood-bank to linear peptides” value [3] was 0.4, the “Binding of Control serum LUMC to linear peptides” value [3] was 0.3 and the “Binding of Control serum LUMC to looped peptides” value [3] was 0.4.

For QLALYKGFQFICNLL, the “Binding of serum 1a to looped/cyclic peptide (PEPSCAN-ELISA)” value [1] was 0.5, the “Binding of serum 1b to looped/cyclic peptide (PEPSCAN-ELISA)” value [1] was 0.4 and the “Binding of serum 2 to looped/cyclic peptide (PEPSCAN-ELISA)” value [1] was 0.4. The “Binding of serum 6 to looped/cyclic peptide (PEPSCAN-ELISA)” value [1] was 1.2, the “Binding of serum 37 to looped/cyclic peptide (PEPSCAN-ELISA)” value [1] was 0.5 and the “Binding of serum 62 to looped/cyclic peptide (PEPSCAN-ELISA)” value [1] was 0.5. The “Binding of serum London to looped/cyclic peptide (PEPSCAN-ELISA)” value [1] was 1.5, the “Binding of serum SARS-green to looped/cyclic peptide (PEPSCAN-ELISA)” value [1] was 0.3 and the “Binding of serum SARS-yellow to looped/cyclic peptide (PEPSCAN-ELISA)” value [1] was 0.5. The “Binding of a rabbit serum to linear peptides” value [2] was 0.3, the “Binding of a rabbit serum to looped peptides” value [2] was 0.6 and the “Binding of Control Serum Blood-Bank to Looped peptides” value [3] was 0.5. For the same sequence, the “Binding of Control serum Blood-bank to linear peptides” value [3] was 0.6, the “Binding of Control serum LUMC to linear peptides” value [3] was 0.5 and the “Binding of Control serum LUMC to looped peptides” value [3] was 0.6.

In the case of FRLFARTRSMWSFNP, the “Binding of serum 1a to linear peptides of protein M of SARS-CoV Urbani” value [1] is reported as 0.8, the “Binding of serum 1a to looped/cyclic peptides of protein M of SARS-CoV Urbani” value [1] is reported as 0.7 and the “Binding of serum 1b to linear peptides of protein M of SARS-CoV Urbani” value [1] is reported as 0.5. For the same sequence, the “Binding of serum 1b to looped/cyclic peptides of protein M of SARS-CoV Urbani” value [1] was 0.5, the “Binding of serum 2 to linear peptides of protein M of SARS-CoV Urbani” value [1] was 0.6 and the “Binding of serum 2 to looped/cyclic peptides of protein M of SARS-CoV Urbani” value [1] was 0.6. For the same sequence, the “Binding of serum 6 to linear peptides of protein M of SARS-CoV Urbani” value [1] was 0.5, the “Binding of serum 6 to looped/cyclic peptides of protein M of SARS-CoV Urbani” value [1] was 0.8 and the “Binding of serum 37 to linear peptides of protein M of SARS-CoV Urbani” value [1] was 0.5. The “Binding of serum 37 to looped/cyclic peptides of protein M of SARS-CoV Urbani” value [1] was 0.6, the “Binding of serum 62 to linear peptides of protein M of SARS-CoV Urbani” value [1] was 0.5 and the “Binding of serum 62 to looped/cyclic peptides of protein M of SARS-CoV Urbani” value [1] was 0.6. For the same sequence, the “Binding of serum London to linear peptides of protein M of SARS-CoV Urbani” value [1] was 0.4, the “Binding of serum London to looped/cyclic peptides of protein M of SARS-CoV Urbani” value [1] was 0.3 and the “Binding of serum SARS-green to linear peptides of protein M of SARS-CoV Urbani” value [1] was 0.6. The “Binding of serum SARS-green to looped/cyclic peptides of protein M of SARS-CoV Urbani” value [1] was 0.3, the “Binding of serum SARS-yellow to linear peptides of protein M of SARS-CoV Urbani” value [1] was 0.2 and the “Binding of serum SARS-yellow to looped/cyclic peptides of protein M of SARS-CoV Urbani” value [1] was 0.5. The “Rabbit serum linear peptides” value [2] was 0.2, the “Rabbit serum looped peptides” value [2] was 0.2 and the “Binding of Control Serum Blood-Bank to Looped peptides of the protein M of SARS-CoV Urbani” value [3] was 0.8. The “Binding of Control serum Blood-bank to linear peptides of the protein M of SARS-CoV Urbani” value [3] was 0.8, the “Binding of Control serum LUMC to linear peptides of the protein M of SARS-CoV Urbani” value [3] was 0.8 and the “Binding of Control serum LUMC to looped peptides of the protein M of SARS-CoV Urbani” value [3] was 0.6.

Source: US20070128217A1 (priority 2003, published 2007)
